Patent publication EP1825852A1, “ST104P as an anti-angiogenic agent” (Sagittarius Life Science Corp., priority 2006, dated 2007)
Like-named read-outs stand apart in the source and are kept apart here.

What was measured:
BAEC [1] = test: Cytotoxicity: cell proliferation assay (crystal violet stain) and morphology; assay type: cell-based, Bovine
Experimental: (§1) Fig.1. The cytotoxicity of ST104P in different types of cells. […] After treatment of ST104P at 10-500 µg/ml in DMEM medium containing 10% FCS for 24 h, the morphologies of BAEC and 3T3 cells were monitored under phase contrast microscopy. The pictures were taken at 400× magnification. (B). The dose-dependent effect of ST104P on the proliferation of different cells. After treatment with ST104P at 10-500 µg/ml or PBS for 48 h, the viability of various cells was determined by crystal violet method in an ELISA reader. Each data represent mean ± SD of quadruplicate experiments. Asterisks indicated statistic significance versus control (P<0.001).
Human umbilical vein endothelial cells (HUVEC; passage 3 to 6) were isolated from umbilical veins and cultured in RPMI 1640 medium (Life Technologies, Gaithersburg, MD) containing 15% fetal calf serum, 20 U/ml porcine heparin (Sigma Chemical Co), and 100 µg/ml endothelial cell growth supplement (Calbiochem; La Jolla, CA). Bovine aortic endothelial (BAEC) cells, 3T3 cells, and LL2 Lewis lung carcinoma cells were cultured with DMEM (Dulbecco's Modified Eagle Medium; Gibco BRL, Rockville, MD) containing 10% fetal calf serum (PAA, Austria), 2 mM glutamine, 100 U/ml penicillin and 100 µg/ml streptomycin (Gibco BRL, Rockville, MD) in 5% CO2 at 37 °C. Human vascular endothelial EA.hy926 cells were cultured in DMEM (Dulbecco's Modified Eagle Medium; Gibco BRL, Rockville, MD) containing 10% fetal calf serum (PAA, Austria), 100 µM sodium hypoxanthine, 0.4 µM aminopterin, 16 µM thymidine (HAT; Gibco BRL, Rockville, MD), 2 mM glutamine, 100 U/ml penicillin and 100 µg/ml streptomycin (Gibco BRL, Rockville, MD) in 5% CO2 at 37 °C.
The effect of ST104P on the viability of various cells was determined using crystal violet stain assay. Briefly, cells cultured in 96-well plate (2-4 x10^3 cells/well) were treated with various doses of ST104P for 48 h. […] The dye in viable cells was measured by reading the optical density at 590 nm using a scanning multi-well spectrophotometer (ELISA reader; Dynatech Laboratories, Chantilly, VA).

EA.hy926 [2] = test: Cytotoxicity: cell proliferation assay (crystal violet stain); assay type: cell-based, Human
Experimental: as §1
(§2) Human umbilical vein endothelial cells (HUVEC; passage 3 to 6) were isolated from umbilical veins and cultured in RPMI 1640 medium (Life Technologies, Gaithersburg, MD) containing 15% fetal calf serum, 20 U/ml porcine heparin (Sigma Chemical Co), and 100 µg/ml endothelial cell growth supplement (Calbiochem; La Jolla, CA). […]
(§3) The effect of ST104P on the viability of various cells was determined using crystal violet stain assay. […] The dye in viable cells was measured by reading the optical density at 590 nm using a scanning multi-well spectrophotometer (ELISA reader; Dynatech Laboratories, Chantilly, VA).

3T3 cells = test: Cytotoxicity: cell proliferation assay (crystal violet stain) and morphology; assay type: cell-based
Experimental: as §1, §2, §3

BAEC [3] = test: Cell migration assay (Boyden chamber, bFGF as chemoattractant); assay type: cell-based, Bovine; conditions: incubation 6 h, bFGF 100 ng/ml
Experimental: Fig. 2. ST104P inhibited the migration of endothelial cells. The effect of ST104p on migration of endothelial cells. BAEC were plated in 6-well plate (1 x 10^6 cells per well) and treated with vasostatin of indicated dose for 12 h. After trypsinization, endothelial cells were applied to top wells in Boyden chamber to initiated migration toward chemoattractant bFGF (100 ng/ml) in the bottom wells. The migrated cells on filter were stained and counted. Each point represents mean ± SEM of triplicate experiments.
Endothelial cells were treated with ST104P of indicated doses for 6-12 h, harvested by trysinization, collected by centrifugation, resuspended in DMEM media containing 0.1% BSA, and seeded in triplicate for each dose and controls in the upper compartment of the chamber (1.2 x 10^5 cells in 400 µl). The lower compartment was filled with 200 µl of the DMEM media containing 100 ng/ml bFGF (R&D, Minneapolis, MN) as the chemoattractant, or with DMEM media containing 0.1% BSA as the negative control (to evaluate random migration). […] After incubation for 2-4 h in a humidified 5% CO2 atmosphere at 37 °C, cells on the upper side of the filter were removed, and those that had migrated to the lower side were fixed in absolute ethanol, stained with 10% Giemsa solution (Merck, Germany), and counted as a mean ± SD per filter under five different high power fields.

EA.hy926 [4] = test: as above; assay type: cell-based, Human; conditions: EA.hy926, incubation 6 h, bFGF 100 ng/ml
BAEC [5] = test: Tube formation assay in Matrigel; assay type: cell-based, Bovine; conditions: 20-100 µg/ml
Experimental: (§4) Fig. 3. ST104P abolished the tube formation of endothelial cells. Application of ST104P perturbed tubular network of BAEC or EA.hy9236 cells in Matrigel. Endothelial cells were applied to Matrigel-coated plate in the absence or presence of ST104P. After 8 h, the tubular structures of BAEC cells were monitored and recorded under light microscopy. The pictures were taken at 400× magnification.
(§5) Matrigel (Becton Dickinson; Bedford, MA) was diluted with cold serum-free medium to 10 mg/ml. Two hundred µl of the diluted solution were added to each well in 24-well plate and allowed to form a gel at 37 °C for 30 min. BAEC or HUVEC (1.5 x 10^5 cells per ml) were initially incubated for 15 min with various doses of ST104P in complete medium. Two hundred µl of the cell suspension (3 x 10^4 cells) were then subsequently added to each well and incubated for 6-8 h at 37 °C in 5% CO2. Under these conditions endothelial cells form delicate networks of tubes that are detectable within 2-3 h and are fully developed after 8-12 h. After incubation with ST104P, the wells were washed and the Matrigel and its endothelial tubes were fixed with 3% paraformaldehyde.

EA.hy926 cells = test: Tube formation assay in Matrigel; assay type: cell-based, Human; conditions: 20-100 µg/ml
Experimental: as §4, §5

MMP-2 = test: MMPs secretion by endothelial cells, gelatin zymography; assay type: cell-based; conditions: BAEC and EA.hy926, even at dose as low as 10 µg/ml, 24 h, conditioned media
Experimental: (§6) ST104P decreases the MMPs secretion by endothelial cells. The conditioned media of BAECs or EA.hy926 cells (in 24-well plate at 1x10^4 cells/well) treated with PBS or ST104P (10-500 µg/ml) for […] were collected to analyze the expression of MMPs by gelatin-PAGE zymography.
(§7) Secretion of MMPs by endothelial cells was assessed by 0.1% gelatin-SDS-PAGE zymography. Briefly, endothelial cells near 80% confluence were washed twice with serum-free media and treated with various doses of vasostatin for 24-48 h: Conditioned media were collected and assayed for protein concentration by Bradford assay. Aliquots of conditioned media were subjected to separation with 10% SDS-PAGE containing 0.1% type A gelatin (Sigma; St. Louis, MO). After electrophoresis, gel was washed twice with 2.5% Triton X-100, incubated in buffer containing 40 mM Tris-HCl, pH 8.0, 10 mM CaCl2, 0.01% sodium azide at 37 °C for 12-24 h, stained with 0.25% Coomassie Blue R-250 in 50% methanol and 10% acetic acid for 1 h, and destained with 10 % acetic acid, 20% methanol. The gelatinolytic regions by MMPs were visualized as white bands in blue background.

MMP-9 = test: as above; assay type: cell-based; conditions: BAEC and EA.hy926, even at dose as low as 10 µg/ml, 24 h, conditioned media
Experimental: as §6, §7

Lewis lung carcinoma = assay type: in vivo, C57BL/6J mice
Experimental: Fig. 6. Injection of ST104P suppressed tumor growth of Lewis lung carcinoma in mice. The subcutaneous dorsa of mice were implanted with Lewis lung carcinomas. The tumor sizes in mice during treatment with ST104P or control were recorded. […] Each point represents mean ± SEM for ten mice.
Fig. 7. Injection of ST104P prolonged the survival of tumor-bearing mice. The subcutaneous dorsa of mice were implanted with Lewis lung carcinomas. The tumor sizes in mice during treatment with ST104P or control were recorded. […] Each point represents mean ± SEM for ten mice. The overall survival rates of ten mice in PBS- or ST104P-treated group were recorded.
Animal study was carried out in the animal facility of Kaohsiung Veterans General Hospital in accordance with institutional guidelines. Male C57BL/6J mice (6- to 8-week-old; Animal Center of National Cheng Kung University, Taiwan) were used. Mice were acclimated and caged in groups of four or less. All mice were fed with a diet of animal chow and water ad libitum. Animals were anesthetized in a methoxyflurane chamber prior to all procedures and were observed until fully recovered. Animals were sacrificed by a lethal dose of methoxyflurane.
C57BL/6J mice were implanted with Lewis lung carcinomas cells using the techniques described previously (O'Reilly et al., Cell 88, 277-285,1997). Briefly, the LL2 Lewis lung carcinoma cells were resuspended in PBS at the concentration of 2.5 x 10^6 cells per ml and injected into C57B16/J mice (n = 20) with 0.1 ml of the cell suspension to induce tumor. Tumors were measured with a dial-caliper and volumes were determined using the formula width^2 × length × 0.52. After tumor volumes reached 100-200 mm^3, mice were randomized into two groups receiving periodic injection of ST104P (n=10) or saline (n = 10) by subcutaneous injection at a site near tumor. The measurement of tumor size was terminated when mice began to die. In addition, the survival rate of mice in different groups was recorded and analyzed by Kaplan-Mier Survival analysis.

[6] = in vivo
CAM = test: Chorioallantoic membrane (CAM) assay
Experimental: The CAMs in 8-day old chicken embryos were incubated with saline or ST104P (50 or 200 µg in saline) for 48 h. The angiogenesis profiles on CAMs were recorded under dissection microscope.
The CAM assay was carried out as described previously (Sheu et al., Anticancer Res 18, 4435-4441,1998). Briefly, fertilized White Leghorn chicken eggs were purchased from Taiwan Provincial Research Institute for Animal Health (Hsin-Chu, Taiwan) and incubated at 37 °C with 60% humidity. On day 3, a square window was opened in the shell, and 2 to 3 ml of albumen was removed to allow detachment of the developing CAM. The window was sealed with a glass, and the eggs were returned to the incubator. On day 8, 50-100 µg ST104P in saline was injected onto the top of the CAM. The CAMs were examined daily until day 10-12, when the angiogenic response peaks, and photographed in ovo with a stereomicroscope equipped with Zeiss MC63 camera system (Zeiss, Oberkochen, Germany). The experiments were carried out using 10 eggs per group.

[7] = molar equivalent given for 500 µg/ml, read-out: IC50
[8] = proliferation/viability, 48 h, crystal violet

Substance: tetrameric cyclic compound of 4,5-dihydroxynaphthalene-2,7, disulfonic acid linked by methylene bridges [ST104P]
- morphologies of cells (BAEC [1]; 10-500 µg/ml, DMEM with 10% FCS, 24 h, phase contrast microscopy): altered the morphologies of endothelial cells
- IC50 (BAEC [1]; [7]): > 350 µM
- IC50 (BAEC [1]; [8]): > 500 mg/L
- IC50 (EA.hy926 [2]; EA.hy926, molar equivalent given for 500 µg/ml, read-out: IC50): > 350 µM
- IC50 (EA.hy926 [2]; proliferation/viability, EA.hy926, 48 h, crystal violet): > 500 mg/L
- IC50 (3T3 cells; [7]): > 350 µM
- IC50 (3T3 cells; [8]): > 500 mg/L
- IC50 (migration toward chemoattractant bFGF) (BAEC [3]): 100 mg/L
- IC50 (migration toward chemoattractant bFGF) (EA.hy926 [4]): 100 mg/L
- tube formation (vessel-like structure in Matrigel) (BAEC [5]): effectively abolished the vessel-like structure
- tube formation (vessel-like structure in Matrigel) (EA.hy926 cells): effectively abolished the vessel-like structure
- secretion of MMP-2 by endothelial cells (MMP-2): potently inhibited the secretion
- secretion of MMP-9 by endothelial cells (MMP-9): potently inhibited the secretion
- decrease of average tumor size versus saline-treated groups (Lewis lung carcinoma; 100 µg, subcutaneous injection for four times): ~ 40%
- average tumor size (Lewis lung carcinoma; 100 µg, subcutaneous injection for four times, saline-treated 4876 ± 670 mm^3, P < 0.05): 2620 ± 320 mm^3
- weight loss or adverse effects (Lewis lung carcinoma; mouse, in vivo): no evident weight loss or adverse effects
- survival of tumor-bearing mice (Lewis lung carcinoma; versus vehicle-treated group, P < 0.01, Kaplan-Meier): survived significantly longer
- tolerability [6]: well tolerated
- inhibition of angiogenesis (CAM; 50 µg per CAM, 8-day old chick embryos): 50%
- mortality of chick embryos (CAM; 200 µg per CAM, 9 out of 10 died versus 0 in PBS-treated group, used as index of angiogenesis inhibition): 90%
- vascular network on CAMs (CAM; 50 or 200 µg in saline, 48 h, 8-day old chicken embryos): severely destroyed
